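Interpolation was linear, between the two tested concentrations surrounding the appropriate level; five concentrations were tested over 48 hours in 96-well plates. Here, GI50 denotes the concentration required for 50% inhibition of growth. At the TGI there is no net growth.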
Assays:
Assay in all cases: NCI-60 cell line screen, 48 h
[1] = tested on: CCRF-CEM leukemia
[2] = tested on: EKVX NSCLC
[3] = tested on: NCI-H226 lung
[4] = tested on: A549 NSCLC
[5] = tested on: SNB-19 CNS
[6] = tested on: HOP-92 NSCLC
[7] = tested on: UO-31 renal
[8] = tested on: SF-268 CNS
[9] = tested on: OVCAR-5 ovarian
[10] = tested on: CAKI-1 renal

## CC#C[C@]1(O)CC[C@H]2[C@@H]3CCC4=CC(=O)CCC4=C3[C@@H](c3ccc4c(c3)OCO4)C[C@@]21C
[1]
  GI50: 103 µM
  TGI: 619 µM
[2]
  GI50: 40.4 µM
  TGI: 813 µM
[3]
  GI50: 140 µM
  TGI: 617 µM
[4]
  GI50: 93.4 µM
  TGI: 875 µM
[5]
  GI50: 174 µM
  TGI: > 1000 µM
[6]
  GI50: 17.7 µM
  TGI: 131 µM
[7]
  GI50: 49.6 µM
  TGI: 218 µM
[8]
  GI50: 79.1 µM
  TGI: 481 µM
[9]
  GI50: 236 µM
  TGI: > 1000 µM

## O=C(O)/C=C\C(=O)N1C/C(=C\c2ccccc2Cl)C(=O)/C(=C/c2ccccc2Cl)C1
[1]
  GI50: 1.43 µM
  TGI: 6.66 µM
[10]
  GI50: 4.29 µM
  TGI: 15 µM
[2]
  GI50: 5.24 µM
  TGI: 18.3 µM
[3]
  GI50: 1.97 µM
  TGI: 3.84 µM
[4]
  GI50: 3.01 µM
  TGI: 13 µM
[5]
  GI50: 1.98 µM
  TGI: 5.34 µM
[6]
  GI50: 4.43 µM
  TGI: 15.5 µM
[7]
  GI50: 1.98 µM
  TGI: 3.72 µM
[8]
  GI50: 1.67 µM
  TGI: 3.54 µM

## NC1C[C@H](n2cc(/C=C/Br)c(=O)[nH]c2=O)C[C@@H]1CO (some centres not stated)
[1]
  TGI: > 100 µM
[2]
  TGI: > 100 µM
[3]
  TGI: > 100 µM
[5]
  TGI: > 100 µM
[7]
  TGI: > 100 µM
[8]
  TGI: > 100 µM

## COc1cc(OC(C)=O)cc2c(OC(C)=O)ccc(OC(C)=O)c12
[1]
  TGI: > 100 µM
[10]
  TGI: > 100 µM
[2]
  TGI: > 100 µM
[4]
  TGI: > 100 µM
[5]
  TGI: > 100 µM
[6]
  TGI: 46.7 µM
[7]
  TGI: > 100 µM
[8]
  TGI: > 100 µM
[9]
  TGI: > 100 µM

## O=C1/C(=C\c2c[nH]c3ccccc23)c2ccccc2N1c1c(Cl)cccc1Cl
[1]
  GI50: 2.42 µM
  TGI: 7.23 µM
[10]
  GI50: 1.43 µM
  TGI: 4.53 µM
[2]
  GI50: 1.63 µM
  TGI: 4.91 µM
[3]
  GI50: 1.7 µM
  TGI: 3.65 µM
[4]
  GI50: 2.62 µM
  TGI: 7.79 µM
[5]
  GI50: 2.77 µM
  TGI: 13.5 µM
[6]
  GI50: 2 µM
  TGI: 3.54 µM
[7]
  GI50: 1.4 µM
  TGI: 3.23 µM
[8]
  GI50: 1.6 µM
  TGI: 3.59 µM

## CCCCCCCCN=C(N)c1ccc(N2CCN(c3ccc(C(N)=NCCCCCCCC)cc3)CC2)cc1
[10]
  GI50: 1.28 µM
  TGI: 3.68 µM
[2]
  GI50: 1.55 µM
  TGI: 8.75 µM
[3]
  GI50: 1.6 µM
  TGI: 5.44 µM
[4]
  GI50: 1.67 µM
  TGI: 9.08 µM
[5]
  GI50: 2.16 µM
  TGI: 14.6 µM
[6]
  GI50: 14.9 µM
  TGI: > 50 µM
[7]
  GI50: 4.22 µM
  TGI: > 50 µM
[8]
  GI50: 1.85 µM
  TGI: 5.91 µM
[9]
  GI50: 3.27 µM
  TGI: 14.4 µM

## COc1ccc(-c2nc3sc4c(c3c(=O)[nH]2)CCCCCC4)cc1
[1]
  GI50: > 33.2 µM
  TGI: > 33.2 µM
[10]
  GI50: > 33.2 µM
  TGI: > 33.2 µM
[3]
  GI50: 8.17 µM
  TGI: > 33.2 µM
[4]
  GI50: 2.94 µM
  TGI: > 33.2 µM
[5]
  GI50: 4.74 µM
  TGI: > 33.2 µM
[6]
  GI50: 1.4 µM
  TGI: 14.5 µM
[7]
  GI50: > 33.2 µM
  TGI: > 33.2 µM
[8]
  GI50: 13.9 µM
  TGI: > 33.2 µM
[9]
  GI50: > 33.2 µM
  TGI: > 33.2 µM

## CC1=Nc2ccccc2S/C1=C(/C)NNC(=O)C(N)=O
[1]
  TGI: > 100 µM
[10]
  TGI: > 100 µM
[2]
  TGI: > 100 µM
[4]
  TGI: > 100 µM
[5]
  TGI: > 100 µM
[6]
  TGI: > 100 µM
[7]
  TGI: > 100 µM
[8]
  TGI: > 100 µM
[9]
  TGI: > 100 µM

## O=C(COc1ccc2c(=O)cc(-c3ccccc3)oc2c1)N1CCN(c2ccccc2)CC1
[1]
  TGI: > 100 µM
[2]
  TGI: > 100 µM
[3]
  TGI: > 100 µM
[4]
  TGI: > 100 µM
[5]
  TGI: > 100 µM
[7]
  TGI: > 100 µM
[8]
  TGI: > 100 µM
[9]
  TGI: > 100 µM

## NCCOCCOCCNc1nc(Cc2ccccc2)nc(NCCCN2CCCC2=O)n1
[1]
  GI50: > 100 µM
  TGI: > 100 µM
[10]
  GI50: > 100 µM
  TGI: > 100 µM
[3]
  GI50: > 100 µM
  TGI: > 100 µM
[4]
  GI50: > 100 µM
  TGI: > 100 µM
[6]
  GI50: > 100 µM
  TGI: > 100 µM
[7]
  GI50: > 100 µM
  TGI: > 100 µM
[8]
  GI50: > 100 µM
  TGI: > 100 µM
[9]
  GI50: > 100 µM
  TGI: > 100 µM

## Cc1cc(N(CCC#N)CCC#N)ccc1N=Nc1cccc(C(=O)O)c1
[1]
  TGI: > 100 µM
[10]
  TGI: > 100 µM
[2]
  TGI: > 100 µM
[3]
  TGI: > 100 µM
[4]
  TGI: > 100 µM
[7]
  TGI: > 100 µM
[8]
  TGI: > 100 µM
[9]
  TGI: > 100 µM

## CC(C)c1cc(-c2n[nH]c(=O)n2-c2ccc3c(ccn3C)c2)c(O)cc1O
[1]
  GI50: < 0.0174 µM
  TGI: > 40.5 µM
[10]
  GI50: 0.0479 µM
  TGI: > 71.5 µM
[3]
  GI50: 0.286 µM
  TGI: 60.1 µM
[4]
  GI50: < 0.0204 µM
  TGI: > 71.3 µM
[5]
  GI50: < 0.0236 µM
  TGI: > 48.5 µM
[6]
  GI50: < 0.0169 µM
  TGI: 0.0484 µM
[7]
  GI50: < 0.0218 µM
  TGI: > 65.2 µM
[8]
  GI50: 9.69 µM
  TGI: 38.9 µM
[9]
  GI50: 0.147 µM
  TGI: > 48.4 µM

## CCCCC(CC)CN=C(N)NC(N)=NCCCCCCN=C(N)NC(N)=NCC(CC)CCCC (configuration not stated)
[10]
  GI50: 2.93 µM
  TGI: 10.3 µM
[2]
  GI50: 1.74 µM
  TGI: 4.73 µM
[3]
  GI50: 2.38 µM
  TGI: 7.48 µM
[7]
  GI50: 3.03 µM
  TGI: 10.1 µM
[8]
  GI50: 1.63 µM
  TGI: 3.09 µM

## COc1ccc(-c2c3c(N)nc(-c4ccncc4)nc3nc3c2c(C)nn3-c2ccccc2)cc1
[1]
  GI50: 5.93 µM
  TGI: > 100 µM
[10]
  GI50: > 100 µM
  TGI: > 100 µM
[3]
  GI50: > 100 µM
  TGI: > 100 µM
[4]
  GI50: 2.4 µM
  TGI: 35.1 µM
[5]
  GI50: 65.1 µM
  TGI: > 100 µM
[6]
  GI50: 36.2 µM
  TGI: > 100 µM
[7]
  GI50: 50.7 µM
  TGI: > 100 µM
[8]
  GI50: 7.93 µM
  TGI: > 100 µM
[9]
  GI50: 4.03 µM
  TGI: > 100 µM

## COc1ccc(/C=C(/C#N)C(N)=O)cc1OC
[1]
  TGI: > 100 µM
[10]
  TGI: > 100 µM
[2]
  TGI: > 100 µM
[3]
  TGI: > 100 µM
[4]
  TGI: > 100 µM
[5]
  TGI: > 100 µM
[6]
  TGI: > 100 µM
[8]
  TGI: > 100 µM
[9]
  TGI: > 100 µM

## Cc1ccccc1[P+](Cc1ccccc1)(c1ccccc1)c1ccccc1
[1]
  GI50: 2.1 µM
  TGI: 33.5 µM
[10]
  GI50: 12.1 µM
  TGI: > 100 µM
[3]
  GI50: 2.35 µM
  TGI: > 100 µM
[4]
  GI50: 3.07 µM
  TGI: > 100 µM
[5]
  GI50: 2.8 µM
  TGI: > 100 µM
[7]
  GI50: 14.2 µM
  TGI: 69.2 µM
[8]
  GI50: 3.44 µM
  TGI: > 100 µM
[9]
  GI50: 2.46 µM
  TGI: > 100 µM

Reference: PubChem BioAssay (NCI)
